{"source": "paper PMC13050480", "about": "“Preclinical Development of GT-14, a Novel Inhibitor of Gαi2 Protein: Comprehensive Evaluation of Physicochemical, Metabolic Characteristics and Tissue Distribution” (The AAPS journal, 2025)", "key": {"[1]": {"assay": "Ionization constant (pKa) determination, Pion Sirius T3, UV-metric and Fast UV titration", "type": "physicochemical", "details": "for pKa: 0.15 M KCl solution, 0.15 M KCl, 25 ± 1°C", "experimental": "The Ionization constant of GT-14 was determined using the Pion Sirius T3 apparatus (Sirius Analytical Instruments Ltd., East Sussex, UK). It has an Ag/AgCl double junction reference pH electrode, a Sirius ±D-PAS spectrometer and a turbidity sensing device. The titration experiments were conducted in 0.15 M KCl solution under an argon atmosphere at a temperature of 25 ± 1°C. All tests were performed using standardized 0.5 M KOH and 0.5 M HCl as titration reagents. pKa value was measured using UV-metric and Fast UV titration methods."}, "[2]": {"assay": "Solubility in different solvents, shake-flask method", "type": "physicochemical", "details": "room temperature", "experimental": "Solubility of GT-14 was assessed in different solvents, namely, water, ethanol, PEG 300, PEG 400, propylene glycol, DMSO, DMA, olive oil, soybean oil, Labrasol and Labrafac, by the shake-flask method. Briefly, an excess amount of GT-14 was added to each of the selected solvents in a scintillation vial. The vials were allowed to shake on a mechanical reciprocating shaker at room temperature for 24 h to achieve solvent saturation. The samples were then centrifuged at 15,000 rpm for 15 min at room temperature. The supernatant with dissolved GT-14 was separated from the pellet of the undissolved compound. It was then diluted and analyzed by UPLC to determine the concentration of GT-14. All experiments were conducted in triplicates."}, "[3]": {"assay": "pH-dependent stability in USP buffers", "type": "physicochemical", "details": "25°C", "experimental": "The pH-dependent stability of GT-14 was assessed in aqueous media of pH ranging from 1 to 10 at room temperature. Standard USP buffers ([11]) were prepared and used for this experiment. Details of buffer solutions are provided in Table I. For the pH solubility profile, GT-14 solid was added in excess amounts in various buffer solutions.\nTo determine the stability of GT-14 in different buffers, GT-14 stock solution (prepared in ACN at a concentration of 75 μg/mL) was added to different buffers to achieve a target concentration of 5 μg/mL. Each buffer solution was prepared in triplicate. All solutions were put on the shaker bath maintained at 25°C. Aliquots were withdrawn at predetermined time points (0, 24, 72, 96, and 120 hrs), centrifuged at 15,000 rpm for 10 min, diluted with Water: ACN (50:50, v/v), and analyzed by the UPLC assay."}, "[4]": {"assay": "Tissue distribution and urinary excretion after IV dose in rats", "type": "in vivo, Sprague Dawley rats", "experimental": "Each tissue sample was weighed and homogenized in a clean scintillation vial with 0.9% saline (1:1, w/v) using the VWR 200 Homogenizer to make tissue homogenates. Homogenization was carried out on ice at a speed of 5000 rpm for all tissues except the prostate and kidney (10,000 rpm). A five-point calibration curve was prepared for the different tissues in the range of 0.39–25 ng/g. One hundred (100) μL of tissue homogenate samples were mixed with 10 μL of Griseofulvin (1.5 μg/mL, IS). The samples were vortexed for 30 seconds which was followed by protein precipitation with methanol (300 μL), to extract GT-14. The samples were again vortexed for 30 seconds, and then shaken on an automatic shaker for 5 minutes, followed by centrifugation at 14000 rpm for 20 minutes at 4°C. The supernatant was transferred to a sample vial, and a 5 μL aliquot was injected for LC-MS/MS analysis.\nHealthy male Sprague Dawley rats (250–300 g) were used to evaluate the plasma pharmacokinetics and tissue distribution of GT-14, with approved animal protocol from the Institutional Animal Care and Use Committee (IACUC) at Texas Southern University. The jugular vein of rats was cannulated in-house the day before intravenous dosing and blood sample collection. GT-14 was administered intravenously as a co-solvent formulation via the jugular vein cannula at a dose of 5 mg/kg. Serial blood samples (100 μL) were collected up to 24 h post-dose. The blood samples were centrifuged at 3000 rpm for 10 min at 4°C, and plasma was collected and stored at −80°C till analysis. Urine samples were also collected at intervals of 0–7 and 7–24 hrs. using metabolic cages and stored at −20°C until analysis. At 24 hr, animals were sacrificed and organs such as prostate, liver, lungs, spleen, brain, kidneys, and heart were collected, following whole body perfusion (transcardiac perfusion) with normal saline to reduce residual blood in tissues. Plasma and tissue homogenate samples were processed (described in section “Analytical Assay”) and analyzed by LC-MS/MS. Tissue concentrations were calculated using the following formula: Tissueconcentrationng/g=CHTS×VHTS/WTS where, CHTS is the concentration (ng/mL) of GT-14 in the homogenized tissue sample; VHTS is the volume of homogenized tissue sample (mL) and WTS is the weight of tissue sample (g)."}, "[5]": {"assay": "Stability of GT-14 in rat urine", "type": "in vitro ADME", "details": "for Stability at -20 °C (48 hrs) in rat urine: n=5, in %", "experimental": "Blank rat urine was spiked with GT-14 at conc. of 25, 50, 500 and 1000 ng/mL. The samples were kept at -20°C for 48 hours (n=5, Mean ± SD)"}, "PC3 cells": {"system": "PC3 cells", "details": "cited from earlier work"}, "[6]": {"details": "rat, IV 5 mg/kg, 24 hr post dose, 5 mg/kg"}}, "note": "“Also recorded” adds a separate entry of the source. Where two headings read alike, the source gives them in different places."}
{"smiles": "C/C(=N\\c1ccc(O)cc1)c1cc2ccccc2n1C", "note": "[GT-14, (E)-4-((1-(1-methyl-1H-indol-2-yl)ethylidene)amino)phenol]", "values": [{"measurement": "pKa", "setting": "[1]; read-out: pKa (printed as acidic pKa, nitrogen of the imine group)", "result": "3.46 ± 0.014"}, {"measurement": "pKa", "setting": "[1]; read-out: pKa (printed as basic pKa, phenolic group)", "result": "10.5 ± 0.4"}, {"measurement": "isoelectric point (pI)", "setting": "[1]; pI=(pKa acid+pKa base)/2", "result": "approximately 7.0"}, {"measurement": "solubility at 24 h", "setting": "[2]; DMA, thermodynamic from solid, n=3, read-out: Solubility in DMA", "result": 107000, "unit": "µg/mL"}, {"measurement": "solubility at 24 h", "setting": "[2]; DMSO, thermodynamic from solid, n=3, read-out: Solubility in DMSO", "result": 80000, "unit": "µg/mL"}, {"measurement": "solubility at 24 h", "setting": "[2]; Labrafac CC (Labrafac Lipophile WL1349), thermodynamic from solid, n=3, read-out: Solubility in Labrafac CC (Labrafac Lipophile WL1349)", "result": 8600, "unit": "µg/mL"}, {"measurement": "solubility at 24 h", "setting": "[2]; Labrasol, thermodynamic from solid, n=3, read-out: Solubility in Labrasol", "result": 8100, "unit": "µg/mL"}, {"measurement": "solubility at 24 h", "setting": "[2]; PEG 300, thermodynamic from solid, n=3, read-out: Solubility in PEG 300", "result": 17200, "unit": "µg/mL"}, {"measurement": "solubility at 24 h", "setting": "[2]; PEG 400, thermodynamic from solid, n=3, read-out: Solubility in PEG 400", "result": 11300, "unit": "µg/mL"}, {"measurement": "solubility at 24 h", "setting": "[2]; olive oil, thermodynamic from solid, n=3, read-out: Solubility in olive oil", "result": 11400, "unit": "µg/mL"}, {"measurement": "solubility at 24 h", "setting": "[2]; propylene glycol, thermodynamic from solid, n=3, read-out: Solubility in propylene glycol", "result": 5300, "unit": "µg/mL"}, {"measurement": "Solubility in DMA", "setting": "[2]; 24 h, n=3", "result": "freely soluble"}, {"measurement": "Solubility in DMSO", "setting": "[2]; 24 h, n=3", "result": "freely soluble"}, {"measurement": "Solubility in Labrafac CC (Labrafac Lipophile WL1349)", "setting": "[2]; 24 h, n=3", "result": "slightly soluble"}, {"measurement": "Solubility in PEG 300", "setting": "[2]; 24 h, n=3", "result": "sparingly soluble"}, {"measurement": "Solubility in PEG 400", "setting": "[2]; 24 h, n=3", "result": "sparingly soluble"}, {"measurement": "Solubility in olive oil", "setting": "[2]; 24 h, n=3", "result": "sparingly soluble"}, {"measurement": "Solubility in propylene glycol", "setting": "[2]; 24 h, n=3", "result": "slightly soluble"}, {"measurement": "Solubility in soybean oil", "setting": "[2]; 24 h, n=3", "result": "slightly soluble"}, {"measurement": "Solubility in water", "setting": "[2]; 24 h, n=3", "result": "very slightly soluble"}, {"measurement": "solubility at 24 h", "setting": "[2]; soybean oil, thermodynamic from solid, n=3, read-out: Solubility in soybean oil", "result": 7800, "unit": "µg/mL"}, {"measurement": "solubility at 24 h", "setting": "[2]; water, n=3, read-out: Solubility in water", "result": 110, "unit": "µg/mL"}, {"measurement": "pH stability (in words)", "setting": "[3]; acidic to neutral pH 1.2–7.4, 120 hours", "result": "relatively stable"}, {"measurement": "pH stability (in words)", "setting": "[3]; alkaline pH 9–10, 120 hours", "result": "significant degradation; also recorded: degrading; also recorded: degradation is significantly pronounced"}, {"measurement": "pH stability, % remaining", "setting": "[3]; pH 1.2–7.4, up to 120 hours", "result": "> 90", "unit": "% remaining"}, {"measurement": "drug cleared from plasma", "setting": "[4]; 24-h time point post single dose injection", "result": "~99", "unit": "%"}, {"measurement": "concentration at 24 h", "setting": "[4]; male, Sprague Dawley, heart, rat, IV 5 mg/kg, 24 hr post dose, read-out: Tissue concentration, heart", "result": "0.13 ± 0.06", "unit": "ng/g"}, {"measurement": "concentration at 24 h", "setting": "[4]; male, Sprague Dawley, kidney, rat, IV 5 mg/kg, 24 hr post dose, read-out: Tissue concentration, kidney", "result": "0.52 ± 0.61", "unit": "ng/g"}, {"measurement": "concentration at 24 h", "setting": "[4]; male, Sprague Dawley, liver, rat, IV 5 mg/kg, 24 hr post dose, read-out: Tissue concentration, liver", "result": "0.13 ± 0.01", "unit": "ng/g"}, {"measurement": "concentration at 24 h", "setting": "[4]; male, Sprague Dawley, lung, rat, IV 5 mg/kg, 24 hr post dose, read-out: Tissue concentration, lung", "result": "0.55 ± 0.15", "unit": "ng/g"}, {"measurement": "concentration at 24 h", "setting": "[4]; male, Sprague Dawley, plasma, rat, IV 5 mg/kg, 24 hr post dose, read-out: Plasma concentration", "result": "9.62 ± 2.82", "unit": "ng/mL"}, {"measurement": "concentration at 24 h", "setting": "[4]; male, Sprague Dawley, prostate, rat, IV 5 mg/kg, 24 hr post dose, read-out: Tissue concentration, prostate", "result": "2.19 ± 1.26", "unit": "ng/g"}, {"measurement": "Kp at 24 h", "setting": "[4]; male, Sprague Dawley, rat, intravenous, 5 mg/kg, all tissues, 24 hr post dose, read-out: tissue-to-plasma ratios", "result": "< 1"}, {"measurement": "GT-14 in brain", "setting": "[4]; [6]", "result": "not detected; also recorded: detected in all sampled tissues except the brain"}, {"measurement": "Tissue distribution (rank order, accumulation)", "setting": "[4]; [6]", "result": "highest concentration of GT-14 in the prostate, followed by the kidneys, lungs, heart, and liver; also recorded: High accumulation in prostate"}, {"measurement": "GT-14 in urine", "setting": "[4]; rat, IV 5 mg/kg, urine 0–7 and 7–24 hrs", "result": "not detected"}, {"measurement": "stability in rat urine (in words)", "setting": "[5]", "result": "stable"}, {"measurement": "Stability at -20 °C (48 hrs) in rat urine", "setting": "[5]; 25 ng/ml", "result": "109.28 ± 2.57"}, {"measurement": "Stability at -20 °C (48 hrs) in rat urine", "setting": "[5]; 50 ng/ml", "result": "110.25 ± 2.36"}, {"measurement": "Stability at -20 °C (48 hrs) in rat urine", "setting": "[5]; 500 ng/ml", "result": "105.71 ± 3.76"}, {"measurement": "Stability at -20 °C (48 hrs) in rat urine", "setting": "[5]; 1000 ng/ml", "result": "101.43 ± 2.58"}, {"measurement": "migratory capability of PC3 cells", "setting": "PC3 cells", "result": "significant reduction"}, {"measurement": "stimulatory effects of docetaxel (cell migration) in PC3 cells", "setting": "PC3 cells; simultaneous treatment", "result": "blocked"}]}
